# Measurements as given in patent US5707976A, “Substituted propane-2-OL derivatives” (Richter Gedeon Vegyeszeti Gyar Rt., priority 1993, dated 1998).
# Where two headings read alike, the source gives them in different places.
# What was measured:
# Candida albicans = assay: Densitometric measurement of the propagation of yeast fungi (BIOSCREEN C), minimal inhibitory concentration; assay type: cell-based; details: for MIC: Candida albicans
# Description: Densitometric measurement of the propagation of yeast fungi
# A microbiological analyzer called BIOSCREEN C (LAB-SYSTEMS, Helsinki, Finland) was used to the measurements. From the test compounds first a stock solution of a concentration of 50 mg/ml, then in 15 steps a bisecting dilution series was prepared with dimethyl sulfoxide. From every dilution step 10 μl each was introduced into the cells of the analysator. Then 390 μl of an aqueous nutrient solution was piperred into the cells. In the mixtures obtained the cells of the yeasts, e.g. Candida albicans, cans, were suspended in such an amount that the optical density of the suspension obtained be about 0.1. Young cultures, shaken at 30° C. for about 12 hours, were used in the preparation of the suspensions. The composition of the aqueous nutrient solution was as follows: 1% by weight of glucose, 0.5% by weight of yeast extract (a product of the firm OXOID Ltd, Great Britain, under the catalogue No. L21) and 0.5% by weight of nutrient broth (a product of the firm OXOID Ltd, Great Britain, under the catalogue No. CM 1/2). The concentration of the compounds to be tested in the cells corresponded to 1250, 625, 312, 156, 78, 39, 19, 9, 4, 2, 1, 0.6, 0.3, 0.15 and 0.07 μg/ml, resp. The densitometric measurement of the cultures was carried out during an incubation at 37° C. for 30 hours. The change in the turbidity of the culture, which can be followed through optical measurement, is proportional to the propagation of the yeast fungi.
# As the minimal inhibitory concentration (MIC) of this test that minimal concentration of the tested compound was determined which was able to prevent totally the propagation of the fungus.
# [1] = test system: other Candida species and other pathogenic fungi; assay: in vitro tests, full inhibition of other Candida species and other pathogenic fungi; assay type: cell-based; details: read-out: dose of full inhibition
# Description: Mainly this resistant species causes the disease called "candidiasis" which is quite wide-spread and very difficult to influence.
# [2] = 30 h, read-out: MIC values of the individual tests
SMILES,MIC (Candida albicans; [2]),other results
"C[Si](C)(C)OC(CCl)(Cn1ccnc1)c1ccc(F)cc1F (stereo not shown) [Example 8, 1-Chloro-2-(2,4-difluorophenyl)-3-(imidazol-1-yl)-2-(trimethylsilyloxy)propane]",19 µg/mL,–
"C[Si](C)(C)OC(Cn1ccnc1)(Cn1cncn1)c1ccc(F)cc1F (stereo not shown) [Example 3, 1-(Imidazol-1-yl)-2-(2,4-difluorophenyl)-3-(1,2,4-triazol-1-yl)-2-(trimethylsilyloxy) propane]",150 µg/mL,–
"C[Si](C)(C)OC(CCl)(Cn1cncn1)c1ccc(F)cc1F (stereo not shown) [Example 5, 1-Chloro-2-(2,4-difluorophenyl)-3-(1,2,4-triazol-1-yl)-2-(trimethylsilyloxy) propane]",9 µg/mL,–
"C[Si](C)(C)OC(Cn1cncn1)(Cn1cncn1)c1ccc(F)cc1F [Example 1, 2-(2,4-Difluorophenyl)-1,3-bis(1,2,4-triazol-1-yl)-2-(trimethylsilyloxy)propane]",150 µg/mL,effectiveness against Candida albicans compared with the active ingredient of fluconazole (Candida albicans; factor missing in the printed text): times more effective
"CC(Cn1cncn1)(O[Si](C)(C)C)c1ccc(F)cc1F (stereo not shown) [Example 6, 2-(2,4-Difluorophenyl)-3-(1,2,4-triazol-1-yl)-2-(trimethylsilyloxy)propane]",150 µg/mL,–
"OC(Cn1cncn1)(Cn1cncn1)c1ccc(F)cc1F [fluconazole, 2-(2,4-difluorophenyl)-1,3-bis(1,2,4-triazol-1-yl)propane-2-ol, reference compound]",2500 µg/mL,"effect against Candida albicans (in words) (Candida albicans): relatively weak effect; MIC (Candida albicans; in vitro, read-out: dose of full inhibition): 2500 µg/mL; MIC [1]: 0.1 to 10 µg/mL"
